In patent publication US20040073277A1, “High fluence rate activation of photosensitizers for dermatological applications” (priority 2002, published 2004):
Where two headings read alike, the source gives them in different places.

Legend:
acne [1] = conditions: red light from a halogen lamp, 13 J/cm^2; cited from earlier work
[2] = test system: photoaged or wrinkled skin; conditions: following ALA-PDT; cited from earlier work
hair follicles = conditions: photodynamic injury to hair follicles; cited from earlier work
actinic keratoses [3] = conditions: irradiation 4 hours after ALA, 580 to 740 nm lamp, 20 J/cm^2; cited from earlier work
actinic keratoses [4] = conditions: cited from earlier work
acne [5] = conditions: 20% ALA for 3 hours on the back; broadband lamp 550 to 700 nm, 150 J/cm^2; cited from earlier work
actinic keratoses [6] = experiment: ALA-PDT of lesional skin with pulsed dye laser below the purpura threshold; assay type: in vivo, human
Procedure: The present invention is generally directed to a method for activation of photodynamic sensitizers in dermatologic application.
The pulsed dye laser was operated below the purpura threshold of the skin at a fluence of about 3.0 to about 7.5 J/cm^2. […] Treatment was performed and successful with and without surface cooling. Surface cooling provided epidermal protection and additional pain reduction.

[7] = 20% ALA for 6 hours, 585 nm, 1.5 milliseconds, 18 J/cm^2
[8] = actinic keratoses, pulsed dye laser 595 nm below purpura threshold

## NCC(=O)CCC(=O)O [ALA, 5-Aminolevulinic acid]
Acne [1]
  side effects: edematous erythema, epidermal exfoliation and irritation lasting several days, and pigmentation changes
  therapeutic response: excellent therapeutic response
  time for treated skin to return to normal: one month
[2]
  photoaged or wrinkled skin: improve
Hair follicles
  excessive or unwanted hair: reduced
Actinic keratoses [3]
  side effects: erythema and skin erosions occurred
Actinic keratoses [4]; [7]
  efficacy of pulsed dye laser versus conventional lamp: similar
  pain with pulsed dye laser versus conventional lamp: significantly lower
Actinic keratoses [4]; pulsed dye laser only, 585 nm, 1.5 milliseconds, 18 J/cm^2
  duration of purpura after treatment: up to two weeks
Actinic keratoses [4]; similar for pulsed dye laser and conventional lamp
  duration of erythema and crusting after treatment: up to two weeks
Acne [5]
  acne response: improved
  side effects: erythema, edema, exfoliation, and long-lasting hyperpigmentation
Actinic keratoses [6]; ALA applied to lesional skin, pulsed dye laser 595 nm, pulse duration 3 to 40 milliseconds, fluence about 3.0 to about 7.5 J/cm^2
  treatment outcome of the lesion: successfully treated
Actinic keratoses [6]; [8]
  pain, crusting and erosions of treated lesions: reduction in pain and in crusting and erosions
  purpura: without purpura
Actinic keratoses [6]; pulsed light source
  efficacy compared with conventional ALA-PDT: efficacy equivalent to conventional ALA-PDT
  side effects compared with conventional ALA-PDT: fewer and minimal side effects
